Results reported in patent US9006188B2, “Co-crystals of dapagliflozin” (Mapi Pharma Ltd., priority 2013, dated 2015).
Where two headings read alike, the source gives them in different places.

How the values were obtained:
[1] = Hygroscopicity by Dynamic Vapor Sorption (DVS), sorption/desorption profile; format: physicochemical; conditions: for appearance of sample after DVS testing: after DVS at 25° C., 0-95% relative humidity
Experimental: (§1) The preparation of lactose co-crystal and asparagine co-crystal were scaled up and repeated (about 400 mg of dapagliflozin free form was dissolved in 26 ml of IPA) and XRPD, PLM, TGA, DSC, NMR and DVS analyses were conducted for physicochemical properties evaluation. Before physicochemical properties evaluation, the solids precipitated out were isolated and dried off at 40° C. for 4 hours in vacuum drier. After hygroscopicity test, the sample was retested by XRPD to determine if any form transformation during the DVS test.
(§2) The sorption/desorption profiles of dapagliflozin Form I were tested at 25° C. under 0-95% relative humidity. […] This sample was tested by XRPD.

[2] = XRPD after DVS at 25° C., 0-95% relative humidity
Experimental: as §1, §2

[3] = −20° C., tightly closed, 1.5 month
Experimental: Dapagliflozin was stored at −20° C., tightly closed. After being stored for 1.5 month, it was characterized by XRPD, MDSC and TGA to check if it is stable.

[4] = DVS 25° C., cycle 1, target 0.0 % P/Po
[5] = DVS 25° C., cycle 1, target 5.0 % P/Po
[6] = DVS 25° C., cycle 1, target 10.0 % P/Po
[7] = DVS 25° C., cycle 1, target 15.0 % P/Po
[8] = DVS 25° C., cycle 1, target 20.0 % P/Po
[9] = DVS 25° C., cycle 1, target 25.0 % P/Po
[10] = DVS 25° C., cycle 1, target 30.0 % P/Po
[11] = DVS 25° C., cycle 1, target 35.0 % P/Po
[12] = DVS 25° C., cycle 1, target 40.0 % P/Po
[13] = DVS 25° C., cycle 1, target 45.0 % P/Po
[14] = DVS 25° C., cycle 1, target 50.0 % P/Po
[15] = DVS 25° C., cycle 1, target 55.0 % P/Po
[16] = DVS 25° C., cycle 1, target 60.0 % P/Po
[17] = DVS 25° C., cycle 1, target 65.0 % P/Po
[18] = DVS 25° C., cycle 1, target 70.0 % P/Po
[19] = DVS 25° C., cycle 1, target 75.0 % P/Po
[20] = DVS 25° C., cycle 1, target 80.0 % P/Po
[21] = DVS 25° C., cycle 1, target 85.0 % P/Po
[22] = DVS 25° C., cycle 1, target 90.0 % P/Po
[23] = DVS 25° C., cycle 1, target 95.0 % P/Po

SMILES: CCOc1ccc(Cc2cc([C@@H]3O[C@H](CO)[C@@H](O)[C@H](O)[C@H]3O)ccc2Cl)cc1 [Form I, (2S,3R,4R,5S,6R)-2-[4-chloro-3-(4-ethoxybenzyl)phenyl]-6-(hydroxymethyl)tetrahydro-2H-pyran-3,4,5-triol, reference compound]
- weight gain from 0 to 95% RH ([1]; DVS 25° C., 0 to 95% RH): 23.33%
- Change In Mass (%) - ref, Desorption [1, 4]: 10.18%
- Change In Mass (%) - ref, Sorption [1, 4]: 0.00%
- Change In Mass (%) - ref, Desorption [1, 5]: 10.26%
- Change In Mass (%) - ref, Hysteresis [1, 5]: 10.18%
- Change In Mass (%) - ref, Sorption [1, 5]: 0.09%
- Change In Mass (%) - ref, Desorption [1, 6]: 10.34%
- Change In Mass (%) - ref, Hysteresis [1, 6]: 10.20%
- Change In Mass (%) - ref, Sorption [1, 6]: 0.14%
- Change In Mass (%) - ref, Desorption [1, 7]: 10.42%
- Change In Mass (%) - ref, Hysteresis [1, 7]: 10.19%
- Change In Mass (%) - ref, Sorption [1, 7]: 0.23%
- Change In Mass (%) - ref, Desorption [1, 8]: 10.50%
- Change In Mass (%) - ref, Hysteresis [1, 8]: 10.20%
- Change In Mass (%) - ref, Sorption [1, 8]: 0.30%
- Change In Mass (%) - ref, Desorption [1, 9]: 10.58%
- Change In Mass (%) - ref, Hysteresis [1, 9]: 10.16%
- Change In Mass (%) - ref, Sorption [1, 9]: 0.41%
- Change In Mass (%) - ref, Desorption [1, 10]: 10.66%
- Change In Mass (%) - ref, Hysteresis [1, 10]: 10.10%
- Change In Mass (%) - ref, Sorption [1, 10]: 0.55%
- Change In Mass (%) - ref, Desorption [1, 11]: 10.74%
- Change In Mass (%) - ref, Hysteresis [1, 11]: 9.91%
- Change In Mass (%) - ref, Sorption [1, 11]: 0.83%
- Change In Mass (%) - ref, Desorption [1, 12]: 10.83%
- Change In Mass (%) - ref, Hysteresis [1, 12]: 9.65%
- Change In Mass (%) - ref, Sorption [1, 12]: 1.18%
- Change In Mass (%) - ref, Desorption [1, 13]: 10.97%
- Change In Mass (%) - ref, Hysteresis [1, 13]: 9.22%
- Change In Mass (%) - ref, Sorption [1, 13]: 1.75%
- Change In Mass (%) - ref, Desorption [1, 14]: 11.15%
- Change In Mass (%) - ref, Hysteresis [1, 14]: 8.85%
- Change In Mass (%) - ref, Sorption [1, 14]: 2.31%
- Change In Mass (%) - ref, Desorption [1, 15]: 11.35%
- Change In Mass (%) - ref, Hysteresis [1, 15]: 8.46%
- Change In Mass (%) - ref, Sorption [1, 15]: 2.89%
- Change In Mass (%) - ref, Desorption [1, 16]: 11.59%
- Change In Mass (%) - ref, Hysteresis [1, 16]: 8.05%
- Change In Mass (%) - ref, Sorption [1, 16]: 3.54%
- Change In Mass (%) - ref, Desorption [1, 17]: 11.95%
- Change In Mass (%) - ref, Hysteresis [1, 17]: 7.67%
- Change In Mass (%) - ref, Sorption [1, 17]: 4.27%
- Change In Mass (%) - ref, Desorption [1, 18]: 12.47%
- Change In Mass (%) - ref, Hysteresis [1, 18]: 7.53%
- Change In Mass (%) - ref, Sorption [1, 18]: 4.94%
- Change In Mass (%) - ref, Desorption [1, 19]: 13.23%
- Change In Mass (%) - ref, Hysteresis [1, 19]: 7.02%
- Change In Mass (%) - ref, Sorption [1, 19]: 6.21%
- Change In Mass (%) - ref, Desorption [1, 20]: 14.44%
- Change In Mass (%) - ref, Hysteresis [1, 20]: 5.71%
- Change In Mass (%) - ref, Sorption [1, 20]: 8.73%
- Change In Mass (%) - ref, Desorption [1, 21]: 16.99%
- Change In Mass (%) - ref, Hysteresis [1, 21]: 4.90%
- Change In Mass (%) - ref, Sorption [1, 21]: 12.09%
- Change In Mass (%) - ref, Desorption [1, 22]: 21.36%
- Change In Mass (%) - ref, Hysteresis [1, 22]: 4.66%
- Change In Mass (%) - ref, Sorption [1, 22]: 16.70%
- Change In Mass (%) - ref, Desorption [1, 23]: 23.33%
- Change In Mass (%) - ref, Sorption [1, 23]: 23.33%
- appearance of sample after DVS testing [1]: thick gel
- appearance of sample after DVS testing ([1]; listed as dapagliflozin Form I): thick gel-like material
- hygroscopicity classification ([1]; based on DVS weight gain from 0 to 95% RH): very hygroscopic
- form transformation after DVS test (XRPD) [2]: an amorphous form (not containing the 32 deg peak) was detected
- form transformation after DVS test (XRPD) ([2]; listed as dapagliflozin Form I): the amorphous was found after testing DVS
- stability on storage (form transformation by XRPD, MDSC, TGA) [3]: stable
- stability on storage (form transformation by XRPD, MDSC, TGA) ([3]; listed as Dapagliflozin): no form transformation was detected
